Columns and labels:
[1] = biological target: T1, Adrenergic α2B (Homo sapiens, UniProt P18089); experiment: GTPγ[35S] assay, Adrenergic α2B; type: biochemical; conditions: antagonism, CHO-K1 membranes, read-out: Activity (Antagonism: IC50), Adrenergic a2B
T1 construct: expressed in transfected cells; host or cells: CHO-K1 (membrane extracts)
Experimental: (§1) Receptor […] activity assays were performed using 8′OH-2-CF3-dihydroergotamine (8′OH-2-CF3-DHE). Table 1 summarizes the cell lines (CHO-K1/HEK293 transfected with relevant human receptor) and the assays performed to detect any agonist or antagonist activity.
(§2) GTPγS studies were conducted to monitor agonist activity for 8′OH-2CF3-dihydroergotamine (8′OH-2CF3-DHE) against the receptors indicated in Table 1 above. Reagents used were the following: Assay buffer (20 mM HEPES, pH 7.4; 100 mM NaCl; 10 μg/mL saponin; 30 mM MgCl2); Membranes (recombinant human receptor membrane extracts were thawed on ice and diluted in assay buffer to give 1000 μg/mL ([…]) and kept on ice); GDP (diluted in assay buffer to give 30 μM solution (3 μM final concentration); beads (PVT-WGA (Amersham, RPNQ001), diluted in assay buffer at 25 mg/mL (0.25 mg/10 μL)); GTPγ^35S (Perkin Elmer, NEG030X), diluted in assay buffer to give 0.1 nM (final concentration); and ligand (agonist/antagonist diluted in assay buffer).
(§3) Membranes were mixed with GDP (1:1) and incubated for at least 15 minutes on ice. In parallel GTPγ^35S was mixed with the beads (1:1) just before starting the reaction. […] The plates were then centrifuged for 10 minutes at 2000 rpm and incubated at room temperature for 1 hour and counted for 1 min/well with a Perkin Elmer TopCount reader.

[2] = biological target: T2, Serotonin 5-HT2A (Homo sapiens, UniProt P28223); experiment: Aequorin assay, Serotonin 5-HT2A; type: cell-based; conditions: agonism; CHO-K1 mAeq Gα16, Aequorin
T2 construct: expressed in transfected cells; host or cells: CHO-K1 mAeq Gα16
T2 sequence (P28223 whole entry): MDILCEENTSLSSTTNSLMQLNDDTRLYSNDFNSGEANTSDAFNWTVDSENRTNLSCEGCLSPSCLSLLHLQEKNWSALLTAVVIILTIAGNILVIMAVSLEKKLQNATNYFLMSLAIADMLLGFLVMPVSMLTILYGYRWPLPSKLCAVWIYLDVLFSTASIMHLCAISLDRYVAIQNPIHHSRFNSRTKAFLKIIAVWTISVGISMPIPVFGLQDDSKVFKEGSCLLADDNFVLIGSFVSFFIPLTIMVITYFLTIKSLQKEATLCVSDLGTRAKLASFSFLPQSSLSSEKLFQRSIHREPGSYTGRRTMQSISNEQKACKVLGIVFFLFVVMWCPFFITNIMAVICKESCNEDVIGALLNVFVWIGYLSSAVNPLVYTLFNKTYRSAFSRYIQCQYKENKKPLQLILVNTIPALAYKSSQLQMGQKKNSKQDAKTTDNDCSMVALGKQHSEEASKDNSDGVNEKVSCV
Experimental: as §1
(§4) Aequorin assays were conducted to monitor activity for 8′OH-2CF3-dihydroergotamine (8′OH-2CF3-DHE) against the receptors indicated in Table 1 above (except for mGlu3 and mGlu5). CHO-K1 cells coexpressing mitochondrial apoaequorin and the recombinant human receptor of interest were grown to mid-log phase in culture media without antibiotics and then detached with PBS-EDTA, centrifuged and resuspended in assay buffer (DMEM/HAM's F12 with HEPES, without phenol red+0.1% BSA, protease free) at a concentration of 1×10^6 cell/mL. […]
(§5) 50 μL of the cell suspension was mixed with 50 μL of test or reference agonist in a 96-well plate. The resulting emission of light was recorded using Hamamatsu Functional Drug Screening System 6000 (FDSS 6000) luminometer. […]
(§6) To standardize the emission of recorded light (and determine of the “100% signal”) across plates and across different experiments, some wells contained 100 μM digitonin or a saturating concentration of ATP (20 μM).

[3] = system: Glutamate (mG1u3/mG1u5/mG1u7); experiment: Glutamate receptor assays (Aequorin mGlu3/mGlu5, cAMP mGluR7); type: cell-based, human; conditions: Aequorin (mGluR3, mGluR5)
Experimental: Receptor […] activity assays were performed using 8′OH-2-CF3-dihydroergotamine (8′OH-2-CF3-DHE). Table 1 summarizes the cell lines (CHO-K1/HEK293 transfected with relevant human receptor) and the assays performed to detect any agonist or antagonist activity. […]
For agonist testing, 30 μL of cell suspension was mixed with 30 μL of test or reference agonist in a 384-well plate. The resulting emission of light was recorded using Hamamatsu Functional Drug Screening System 6000 (FDSS 6000) luminometer. […] The resulting emission of light was recorded using Hamamatsu Functional Drug Screening System 6000 (FDSS 6000) luminometer.
cAMP HTRF (Gi) studies were conducted to monitor activity for 8′OH-2CF3-dihydroergotamine (8′OH-2CF3-DHE) against the receptors indicated in Table 1 above. […] Lysis buffer was added and after a 1 hour incubation, cAMP concentrations was determined according to the manufacturer specification with the HTRF kit. […] Lysis buffer was added and after a 1 hour incubation, cAMP concentrations were determined according to the manufacturer specification, with the HTRF kit.

[4] = biological target: T3, NK1 (Homo sapiens, UniProt P25103); experiment: Aequorin assay, Neurokinin NK1; type: cell-based; conditions: antagonism, CHO-AEQ
T3 construct: expressed in transfected cells; host or cells: CHO-AEQ (CHO-K1 coexpressing mitochondrial apoaequorin)
T3 sequence (P25103 whole entry): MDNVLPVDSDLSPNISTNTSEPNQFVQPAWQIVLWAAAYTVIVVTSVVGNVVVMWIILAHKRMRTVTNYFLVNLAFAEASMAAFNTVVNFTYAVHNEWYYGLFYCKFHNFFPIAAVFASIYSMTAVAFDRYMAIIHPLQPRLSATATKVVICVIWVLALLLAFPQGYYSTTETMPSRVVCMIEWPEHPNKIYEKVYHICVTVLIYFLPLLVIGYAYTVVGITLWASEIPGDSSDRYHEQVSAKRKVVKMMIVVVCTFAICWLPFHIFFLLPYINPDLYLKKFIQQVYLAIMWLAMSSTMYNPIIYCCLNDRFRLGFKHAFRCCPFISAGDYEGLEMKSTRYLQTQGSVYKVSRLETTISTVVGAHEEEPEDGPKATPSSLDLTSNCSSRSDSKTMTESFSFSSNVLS
Experimental: as §1, §4, §5, §6

[5] = system: VIP/PACAP (PAC1/VPAC1/VPAC2); experiment: Aequorin assay, VIP/PACAP receptors; type: cell-based, human; conditions: CHO-AEQ
Experimental: as §1, §4, §5, §6

[6] = biological target: T4, Dopamine D2L (Homo sapiens, UniProt P14416); experiment: GTPγ[35S] assay, Dopamine D2L; type: biochemical; conditions: agonism, CHO-K1 membranes
T4 construct: expressed in transfected cells; host or cells: CHO-K1 (membrane extracts)
T4 sequence (P14416 whole entry): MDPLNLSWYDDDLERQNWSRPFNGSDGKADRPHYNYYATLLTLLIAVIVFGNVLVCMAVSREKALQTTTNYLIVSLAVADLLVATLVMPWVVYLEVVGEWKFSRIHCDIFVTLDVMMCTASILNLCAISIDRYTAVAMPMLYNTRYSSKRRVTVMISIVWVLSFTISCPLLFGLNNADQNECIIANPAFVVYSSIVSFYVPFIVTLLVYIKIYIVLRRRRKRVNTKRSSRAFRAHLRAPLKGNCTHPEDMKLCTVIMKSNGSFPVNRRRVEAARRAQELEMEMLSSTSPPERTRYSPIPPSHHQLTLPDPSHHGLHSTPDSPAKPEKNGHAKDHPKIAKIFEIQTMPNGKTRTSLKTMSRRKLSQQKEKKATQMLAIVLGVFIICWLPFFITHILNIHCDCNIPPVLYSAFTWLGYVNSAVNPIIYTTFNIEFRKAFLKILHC
Experimental: as §1, §2, §3

T1 sequence (P18089 whole entry): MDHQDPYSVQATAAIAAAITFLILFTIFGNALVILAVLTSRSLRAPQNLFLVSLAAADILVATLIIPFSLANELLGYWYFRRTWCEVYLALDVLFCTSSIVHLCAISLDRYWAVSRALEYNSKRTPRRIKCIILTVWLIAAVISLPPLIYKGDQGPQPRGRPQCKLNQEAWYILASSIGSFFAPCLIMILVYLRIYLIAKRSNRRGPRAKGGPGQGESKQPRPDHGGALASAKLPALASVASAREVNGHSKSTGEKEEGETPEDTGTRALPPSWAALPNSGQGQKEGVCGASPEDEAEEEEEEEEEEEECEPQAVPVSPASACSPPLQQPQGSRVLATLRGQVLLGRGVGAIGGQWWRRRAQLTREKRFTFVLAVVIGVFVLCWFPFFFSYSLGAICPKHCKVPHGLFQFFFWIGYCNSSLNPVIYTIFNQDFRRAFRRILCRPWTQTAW

## CN1C[C@H](C(=O)N[C@]2(C)O[C@@]3(O)[C@@H]4CC[C@@H](O)N4C(=O)[C@H](Cc4ccccc4)N3C2=O)C[C@@H]2c3cccc4[nH]c(C(F)(F)F)c(c34)C[C@H]21 [8′OH-2-CF3-DHE, 8′-Hydroxy-2-CF3-dihydroergotamine]
[1]
  IC50: 0.777 µM
[2]
  EC50: 0.607 µM
[3]
  Activity (Agonism: EC50; Antagonism: IC50), Glutamate (mG1u3/mG1u5/mG1u7): Inactive
[4]
  IC50: > 1 µM
[5]
  Activity (Agonism: EC50; Antagonism: IC50), VIP/PACAP (PAC1/VPAC1/VPAC2): Inactive
[6]
  EC50: 0.0173 µM
